{"source": "patent US20020115117A1", "about": "“ERbeta-mediated gene expression” (priority 2000, published 2002)", "key": {"DU145 cells [1]": {"tested_on": "DU145 cells", "test": "Cell growth of DU145 cells, trypan blue exclusion count", "type": "cell-based, human", "conditions": "for reduction in the cell numbers: 1 μM, 4 days, vs vehicle (absolute ethanol) control; for effect on cell growth: 4-day exposure, vs vehicle control", "description": "FIGS. 2A-2D are graphs summarizing data on effects of antiestrogens and estrogens on cell growth of DU145 cells. Cells (5×10^3 cells per well) were plated in triplicate wells onto a 24-well plate. After 24 hours for cell attachment, cells were treated for 4 days with antiestrogens [(A) ICI and (B) 4OH-TAM] or estrogens [(C) 17β-estradiol and (D) DES] at various concentrations as indicated. Cells treated with vehicle (absolute ethanol) were used as control. The number of viable cells at the end of 4 days of treatment was determined by the trypan blue exclusion method. Three individual experiments were performed. (Columns, means; bars, S.D.; n=9; *, p<0.001 compared to control (shaded column).\n(§1) Cells were seeded at a density of 5×10^3 per ml into 24-well plates (Falcon, Becton Dickinson Labware, Lincoln Park, N.J.) in a final volume of 1 ml culture medium with 5% charcoal-stripped FBS. Twenty-four hours following seeding, triplicate wells of cells were treated in with 1 μM, 10 μM and 100 μM of estradiol-17β (E2), diethylstilbestrol (DES), 4′-hydroxytamoxifen (4OH-TAM) or ICI 182,780 (ICI). E2, DES, and 4OH-TAM were purchased from Sigma Co. (St. Louis, Mo.) and ICI was a gift from Zeneca Pharmaceuticals (Macclesfield, United Kingdom). Estrogens and antiestrogens were dissolved in absolute ethanol (Sigma Co., St. Louis, Mo.) and added to the media daily. Cell cultures not treated with estrogenic compounds received absolute ethanol as a vehicle control. Total additive ethanol concentrations never exceeded 0.2% throughout the culture period. The cells were re-fed with freshly prepared medium every other day. At the end of a 4-day treatment period, cells in each well were trypsinized and cell count determined by direct counting using the Trypan blue exclusion method. All treatment experiments were repeated at least three times to generate statistically relevant data."}, "PC-3 cells": {"tested_on": "PC-3 cells", "test": "Cell growth of PC-3 cells, trypan blue exclusion count", "type": "cell-based, human", "description": "FIGS. 3A-3D are graphs summarizing data on effects of antiestrogens and estrogens on cell growth of PC-3 cells. Cell growth assay was described in […]. (A) ICI. (B) 4OH-TAM. (C) 17β-estradiol. (D) DES. Columns, means; bars, S.D.; n=9; * ,p<0.001; #, p<0.01; +, p<0.05; compared to control (shaded column).\nas §1"}, "DU145 cells [2]": {"tested_on": "DU145 cells", "test": "ICI-induced DU145 cell growth inhibition with ERβ antisense, sense or mismatch ODN", "type": "cell-based, human", "conditions": "ICI 1 μM, 4 days, no ODN", "description": "FIG. 4 is a graph summarizing data on reduction of ICI-induced inhibition of DU145 cell growth by ERβ antisense oligonucleotide (ODN). Cells were treated with ICI at 10^−6 M for 4 days in the presence of 2.5 μM antisense, sense or mismatch ODNs. Columns, means; bars, S.D.; n=16; *,p<0.001 compared to control without ODN treatment.\nDU145 cells (5×10^3 cells per well) were plated in 24 well-plates (Falcon, Becton Dickinson Labware, Lincoln Park, N.J.). After allowing 24 hours for cell attachment, cell cultures were treated in triplicate with 1 μM ICI in the presence of 2.5 μM ERβ antisense, sense or mismatch ODNs for 4 days. The ERβ antisense ODN, an 18-mer, was designed to recognize the first translation start site on the ERβ mRNA and its immediate 5′flanking region (Table 2, below). The nucleotide sequence of sense ODN is complementary to those of ERβ antisense ODN (Table 2). Based on the sequence of ERβ antisense ODN, 5 nucleotides were scrambled to generate a mismatch ODN that retains the same GC ratio of the ERβ antisense ODN (Table 2). Both the sense and the mismatch ODNs served as controls for the antisense ODN. In all three ODNs, the first and the last 3 nucleotides were phosphorothioate-modified to increase their stability in cellulo. Number of viable cells in each well was determined by direct counting using the Trypan blue exclusion method after a 4-day treatment period. […]"}, "DU145 cells [3]": {"tested_on": "DU145 cells", "test": "cDNA expression array of DU145 cells treated with ICI 182,780", "type": "cell-based, human", "conditions": "DU145, 12 hours", "description": "cDNA array technology was used to identify genes whose expression is modulated by ICI 182,780 in DU145 cells. The DU-145 cells were treated for 12 hours with ICI 182,780, and total RNA was then isolated from treated cells and untreated controls. Following poly-(A)-RNA selection of these two population of total RNA, and DNase I digestion to remove contaminating DNA, the poly (A)-RNA pools were reversed-transcribed in the presence of P32 to produce radiolabeled cDNA probes. These radiolabeled cDNA probes were applied to an Atlas™ cDNA Expression Array (600 gene array, Clontech Laboratories, Inc, Palo Alto, Calif.) using the vendor's recommended protocol."}, "DU145": {"tested_on": "DU145", "test": "Cell growth inhibition by Raloxifene and Resveratrol, DU145", "type": "cell-based, human", "source_text": "(§2) Raloxifene® and Resveratrol® may also be active tumor suppressing agents utilizing the ERβ pathways. […] Treatment protocols and dosages used were similar to those described above."}, "PC-3 M cells": {"tested_on": "PC-3 M cells", "test": "Cell growth inhibition by Raloxifene and Resveratrol, PC-3 M", "type": "cell-based, human", "source_text": "as §2"}, "recombinant ERβ protein": {"tested_on": "recombinant ERβ protein", "test": "Competitive inhibition ELISA of GC-17 antibody", "type": "binding, human", "conditions": "peptide pre-incubated with GC-17 (1:6000); ERβC 4 mg-4 μg/ml, ERβN 4 mg/ml", "description": "FIG. 5 is a graphic representation of the results of a competitive ELISA assay and illustrates the concentration-dependent competition of the immunizing peptide (ERβC) with a GC-17 antibody. […] The GC-17 antibodies, bound to recombinant ER-β protein on ELISA plates, were recognized by alkaline phosphatase conjugated anti-rabbit IgG antibodies. The whole complexes were visualized by incubation with p-nitrophenyl phosphate. The optical density at 405 nm was measured. The entire assay was done 4 times. The columns represent the standard deviation. w/o=GC-17 preincubated without peptide antigen.\nThe wells of an ELISA plate, PRO-BIND™ (Becton-Dickenson Labware, Franklin, N.J.) were coated with a recombinant protein composed of the entire ERβ sequence (PanVera, Madison, Wis.) at a concentration of 5 μg/ml. The GC17 antibody (1:6000) was then pre-incubated with the immunizing peptide at concentrations ranging from 4 mg-4 μg/ml at room temperature for 30 minutes. In addition, 4 mg of a control peptide encompassing sequences in the N-terminal region of ER-β (Research Genetics) was preincubated with the GC 17 antibody (1:6000) at room temperature for 1 hour. […] Results were quantified by optical density using the Microplate reader 550 (Bio-Rad, Richmond, Calif.). […]"}, "ERβ": {"tested_on": "ERβ", "test": "Competitive immunohistochemistry with GC-17 antibody", "type": "cell-based, human", "conditions": "sections of DU145 and LNCaP cells, 400 μg/ml or 40 μg/ml peptide", "source_text": "These cells were used to compliment and confirm that the GC-17 antibody reagent specifically detected ERβ but not ERα by immunohistochemical staining. Using the GC-17 antibody and the anti-ERα antibody (NCL-ER-6F11, Novacastra, Newcastle, UK) at the same dilutions as for tissue sections (see below), we carried out immunohistochemical studies on 10% formalin-fixed cytospins of DU145 and LNCaP cells that had been routinely processed, embedded in paraffin, sectioned at 5 μm and mounted on SuperFrost Plus™ slides (VWF Scientific, West Chester, Pa.).\nPeptide competition studies were performed at the immunohistochemical level that approximated the conditions used in the ELISA assays described above. GC-17 antibody, at a dilution of 1:6000, was incubated with the immunizing ERβ peptide at concentrations of 400 μg and 40 μg at room temperature for 1 hour. In addition, competitive studies were conducted using ERα recombinant peptide (400 and 40 μg, Affinity Bioreagents Inc., Golden, Colo.) on DU145 cells. Incubation conditions and time were identical to those used for the ERβ peptide competition studies. Deparaffinized sections of DU145 and LNCaP cells and human prostate tissue were then incubated with these mixtures at room temperature for 1 hour. […]"}}, "note": "Where no end group is shown, it is not given here.", "data": [{"compound": "CC/C(=C(\\c1ccccc1)c1ccc(OCCN(C)C)cc1)c1ccc(O)cc1", "note": "[4OH-TAM, 4′-hydroxytamoxifen]", "values": [{"measurement": "reduction in the cell numbers", "setting": "DU145 cells [1]", "value": "around 25%"}]}, {"compound": "CC/C(=C(/CC)c1ccc(O)cc1)c1ccc(O)cc1", "note": "[DES, diethylstilbestrol]", "values": [{"measurement": "effect on cell growth", "setting": "DU145 cells [1]", "value": "did not affect cell growth"}, {"measurement": "effect on cell growth", "setting": "PC-3 cells; various concentrations", "value": "did not elicit statistically significant cell growth inhibition"}]}, {"compound": "C[C@]12CC[C@@H]3c4ccc(O)cc4C[C@@H](CCCCCCCCC[S+]([O-])CCCC(F)(F)C(F)(F)F)[C@H]3[C@@H]1CC[C@@H]2O", "note": "(stereo partly drawn) [ICI 182,780]", "values": [{"measurement": "reduction in the cell numbers", "setting": "DU145 cells [1]", "value": 40, "unit": "%"}, {"measurement": "effect on cell growth", "setting": "DU145 cells [1]", "value": "dose-dependent inhibition of cell numbers"}, {"measurement": "reduction in cell number", "setting": "DU145 cells [2]", "value": 40, "unit": "%"}, {"measurement": "Fold difference relative to control", "setting": "DU145 cells [3]; gene: 5-hydroxytryptamine A1 receptor (E4h)", "value": "+6.6"}, {"measurement": "Fold difference relative to control", "setting": "DU145 cells [3]; gene: BCL-2 related A1 protein (BFL-1)(C4H)", "value": "+9.6"}, {"measurement": "Fold difference relative to control", "setting": "DU145 cells [3]; gene: Embryonic growth/differentiation factor (GDF-1)", "value": "+4.5"}, {"measurement": "Fold difference relative to control", "setting": "DU145 cells [3]; gene: IFN-α/β receptor", "value": "+2.7"}, {"measurement": "Fold difference relative to control", "setting": "DU145 cells [3]; gene: Interleukin-12 alpha chain (IL-12)(F6K)", "value": "+10.6"}, {"measurement": "Fold difference relative to control", "setting": "DU145 cells [3]; gene: RYK receptor-like tyrosine kinase (E2c)", "value": "+3.6"}, {"measurement": "Fold difference relative to control", "setting": "DU145 cells [3]; gene: TL1309", "value": "+2.7"}]}, {"compound": "Oc1ccc(C=Cc2cc(O)cc(O)c2)cc1", "note": "[Resveratrol]", "values": [{"measurement": "inhibition of cell growth", "setting": "DU145", "value": "marked inhibition of cell growth"}, {"measurement": "inhibition of cell growth", "setting": "PC-3 M cells", "value": "marked inhibition of cell growth"}]}, {"compound": "ERβC: immunizing peptide, C-terminus of ERβ (amino acids 449-465), 4-branch Multiple Antigenic Peptide (QQQSMRLANLLMLLSHV; also: 4-branch Multiple Antigenic Peptide)", "values": [{"measurement": "suppression of GC-17 binding to the recombinant protein", "setting": "recombinant ERβ protein", "value": "successfully suppressed binding"}, {"measurement": "effect on nuclear staining by GC-17", "setting": "ERβ", "value": "totally abolished nuclear staining"}]}, {"compound": "C[C@]12CC[C@@H]3c4ccc(O)cc4CC[C@H]3[C@@H]1CC[C@@H]2O", "note": "[E2, estradiol-17β]", "values": [{"measurement": "effect on cell growth", "setting": "DU145 cells [1]", "value": "did not affect cell growth"}, {"measurement": "effect on cell growth", "setting": "PC-3 cells; 1 μM, p<0.05", "value": "induced inhibition of cell growth"}, {"measurement": "effect on cell growth", "setting": "PC-3 cells; 10 μM, p<0.01", "value": "induced inhibition of cell growth"}]}, {"compound": "O=C(c1ccc(OCCN2CCCCC2)cc1)c1c(-c2ccc(O)cc2)sc2cc(O)ccc12", "note": "[Raloxifene]", "values": [{"measurement": "efficacy compared", "setting": "DU145", "value": "markedly better than that of Resveratrol and ICI"}, {"measurement": "inhibition of cell growth", "setting": "DU145", "value": "marked inhibition of cell growth"}, {"measurement": "efficacy compared", "setting": "PC-3 M cells", "value": "markedly better than that of Resveratrol and ICI"}, {"measurement": "inhibition of cell growth", "setting": "PC-3 M cells", "value": "marked inhibition of cell growth"}]}]}
